Data: patent publication US20240000872A1, “NOVEL BACTERIOPHAGE THAT LYSES ACINETOBACTER GENUS BACTERIA HAVING RESISTANCE TO ANTIBIOTICS” (priority 2020, published 2024)

System: Acinetobacter baumannii strains
Test: Antibiotic susceptibility test (CLSI disk diffusion test method, read per CLSI 2016)
Format: cell-based
Experimental: Strain identification was performed using a kit such as AT 32 GN system (bioMérieux, Marcy l'Etoile, France). […] In Table 2 below, S, I, and R are the results obtained by evaluating susceptibility to the antibacterial agents, in which ‘S’ means susceptible, ‘I’ means intermediate, and ‘R’ means resistant.
Strain identification was performed using a kit such as ATB 32 GN system (bioMédrieux, Marcy l'Etoile, France). […] In Table 6 below, S, I, and R are the results obtained by evaluating susceptibility to the antibacterial agents, in which ‘S’ means susceptible, ‘I’ means intermediate, and ‘R’ means resistant.
Strain identification was performed using a kit such as ATB 32 GN system (bioMérieux, Marcy l'Etoile, France). […] In Table 10 below, S, I, and R are the results obtained by evaluating susceptibility to the antibacterial agents, in which ‘S’ means susceptible, T means intermediate, and ‘R’ means resistant.

## CO/N=C(\C(=O)N[C@@H]1C(=O)N2C(C(=O)O)=C(COC(C)=O)CS[C@H]12)c1csc(N)n1 [Cefotaxime, cefotaxime]
Host strain YMC14/01/C29
  antibiotic susceptibility class: R
Host strain YMC14/01/IP122
  antibiotic susceptibility class: R
Host strain YMC14/01/L8
  antibiotic susceptibility class: R
Host strain YMC14/01/P31
  antibiotic susceptibility class: R
Host strain YMC14/01/P117
  antibiotic susceptibility class: R
Host strain YMC14/01/P224
  antibiotic susceptibility class: R
Host strain YMC14/01/P727
  antibiotic susceptibility class: R
Host strain YMC14/01/P728
  antibiotic susceptibility class: R
Host strain YMC14/01/R130
  antibiotic susceptibility class: R
Host strain YMC14/01/R160
  antibiotic susceptibility class: R
Host strain YMC14/01/R198
  antibiotic susceptibility class: R
Host strain YMC14/01/R257
  antibiotic susceptibility class: R
Host strain YMC14/01/R270
  antibiotic susceptibility class: R
Host strain YMC14/01/R324
  antibiotic susceptibility class: R
Host strain YMC14/01/R443
  antibiotic susceptibility class: R
Host strain YMC14/01/R451
  antibiotic susceptibility class: R
Host strain YMC14/01/R560
  antibiotic susceptibility class: R
Host strain YMC14/01/R617
  antibiotic susceptibility class: R
Host strain YMC14/01/R671
  antibiotic susceptibility class: R
Host strain YMC14/01/R732
  antibiotic susceptibility class: R
Host strain YMC14/01/R767
  antibiotic susceptibility class: R
Host strain YMC14/01/R904
  antibiotic susceptibility class: R
Host strain YMC14/01/R905
  antibiotic susceptibility class: R
Host strain YMC14/01/R921
  antibiotic susceptibility class: R
Host strain YMC14/01/R941
  antibiotic susceptibility class: R
Host strain YMC14/01/R958
  antibiotic susceptibility class: R
Host strain YMC14/01/R1006
  antibiotic susceptibility class: R
Host strain YMC14/01/R1199
  antibiotic susceptibility class: R
Host strain YMC14/01/R1659
  antibiotic susceptibility class: R
Host strain YMC14/01/R1722
  antibiotic susceptibility class: R
Host strain YMC14/01/R1752
  antibiotic susceptibility class: R
Host strain YMC14/01/R2429
  antibiotic susceptibility class: R
Host strain YMC14/01/R2572
  antibiotic susceptibility class: R
Host strain YMC14/01/R2855
  antibiotic susceptibility class: R
Host strain YMC14/01/R2945
  antibiotic susceptibility class: R
Host strain YMC14/01/R3007
  antibiotic susceptibility class: R
Host strain YMC14/01/R3129
  antibiotic susceptibility class: R
Host strain YMC14/01/R3317
  antibiotic susceptibility class: R
Host strain YMC14/01/R3474
  antibiotic susceptibility class: R
Host strain YMC14/01/R3574
  antibiotic susceptibility class: R
Host strain YMC14/01/U313
  antibiotic susceptibility class: R
Host strain YMC14/01/U318
  antibiotic susceptibility class: R
Host strain YMC14/02/L18
  antibiotic susceptibility class: R
Host strain YMC14/02/P47
  antibiotic susceptibility class: R
Host strain YMC14/02/R1860
  antibiotic susceptibility class: R
Host strain YMC14/02/R2417
  antibiotic susceptibility class: R
Host strain YMC14/02/R2599
  antibiotic susceptibility class: R
Host strain YMC14/02/R2668
  antibiotic susceptibility class: R
Host strain YMC14/02/R2758
  antibiotic susceptibility class: R
Host strain YMC14/02/R2781
  antibiotic susceptibility class: R
Host strain YMC14/02/R3106
  antibiotic susceptibility class: R
Host strain YMC14/02/R3419
  antibiotic susceptibility class: R
Host strain YMC14/02/U1607
  antibiotic susceptibility class: R
Host strain YMC14/03/L9
  antibiotic susceptibility class: R
Host strain YMC14/03/P471
  antibiotic susceptibility class: R
Host strain YMC14/03/R122
  antibiotic susceptibility class: R
Host strain YMC14/03/R217
  antibiotic susceptibility class: R
Host strain YMC14/03/R380
  antibiotic susceptibility class: R
Host strain YMC14/03/R618
  antibiotic susceptibility class: R
Host strain YMC14/03/R2144
  antibiotic susceptibility class: R
Host strain YMC14/03/U4616
  antibiotic susceptibility class: R
Host strain YMC14/04/R1078
  antibiotic susceptibility class: R
Host strain YMC14/04/R1080
  antibiotic susceptibility class: R
Host strain YMC14/06/R2359
  antibiotic susceptibility S/I/R: R
  susceptibility category (S/I/R): R
Host strain YMC14/08/R1169
  antibiotic susceptibility S/I/R: R
  susceptibility category (S/I/R): R
Host strain YMC14/08/T90
  antibiotic susceptibility S/I/R: R
  susceptibility category (S/I/R): R
Host strain YMC15/02/R436
  antibiotic susceptibility S/I/R: R
  susceptibility category (S/I/R): R
Host strain YMC15/02/T28
  antibiotic susceptibility S/I/R: R
  susceptibility category (S/I/R): R
Host strain YMC15/03/R1604
  antibiotic susceptibility S/I/R: R
  susceptibility category (S/I/R): R
Host strain YMC15/09/R1869
  antibiotic susceptibility S/I/R: R
  susceptibility category (S/I/R): R
Host strain YMC16/01/P11
  antibiotic susceptibility S/I/R: R
  susceptibility category (S/I/R): R
Host strain YMC16/01/R123
  antibiotic susceptibility S/I/R: R
  susceptibility category (S/I/R): R
Host strain YMC16/01/R198
  antibiotic susceptibility S/I/R: R
  susceptibility category (S/I/R): R
Host strain YMC16/01/R353
  antibiotic susceptibility S/I/R: R
  susceptibility category (S/I/R): R
Host strain YMC16/01/R380
  antibiotic susceptibility S/I/R: R
  susceptibility category (S/I/R): R
Host strain YMC16/01/R397
  antibiotic susceptibility S/I/R: R
  susceptibility category (S/I/R): R
Host strain YMC16/01/R405
  antibiotic susceptibility S/I/R: R
  susceptibility category (S/I/R): R
Host strain YMC16/03/R4461
  susceptibility category (S/I/R): I
Host strain YMC16/05/R2210
  antibiotic susceptibility S/I/R: R
  susceptibility category (S/I/R): R
Host strain YMC16/07/R2512
  antibiotic susceptibility S/I/R: R
  susceptibility category (S/I/R): R
Host strain YMC16/09/R2471
  antibiotic susceptibility S/I/R: R
  susceptibility category (S/I/R): R
Host strain YMC16/10/R2537
  antibiotic susceptibility S/I/R: R
  susceptibility category (S/I/R): R
Host strain YMC16/12/B11422
  antibiotic susceptibility S/I/R: R
  susceptibility category (S/I/R): R
Host strain YMC16/12/B11449
  antibiotic susceptibility S/I/R: R
  susceptibility category (S/I/R): R
Host strain YMC16/12/B13325
  antibiotic susceptibility S/I/R: R
  susceptibility category (S/I/R): R
Host strain YMC16/12/P503
  antibiotic susceptibility S/I/R: R
  susceptibility category (S/I/R): R
Host strain YMC16/12/R4637
  antibiotic susceptibility S/I/R: R
  susceptibility category (S/I/R): R
Host strain YMC17/01/B8053
  antibiotic susceptibility S/I/R: R
  susceptibility category (S/I/R): R
Host strain YMC17/01/B10087
  antibiotic susceptibility S/I/R: R
  susceptibility category (S/I/R): R
Host strain YMC17/01/B12075
  antibiotic susceptibility S/I/R: R
  susceptibility category (S/I/R): R
Host strain YMC17/01/B13454
  antibiotic susceptibility S/I/R: R
  susceptibility category (S/I/R): R
Host strain YMC17/01/P518
  antibiotic susceptibility S/I/R: R
  susceptibility category (S/I/R): R
Host strain YMC17/01/R2812
  antibiotic susceptibility S/I/R: R
  susceptibility category (S/I/R): R
Host strain YMC17/02/B14
  antibiotic susceptibility S/I/R: R
  susceptibility category (S/I/R): R
Host strain YMC17/02/B87
  antibiotic susceptibility S/I/R: R
  susceptibility category (S/I/R): R
Host strain YMC17/02/B721
  antibiotic susceptibility S/I/R: R
  susceptibility category (S/I/R): R
Host strain YMC17/02/B4039
  antibiotic susceptibility S/I/R: R
  susceptibility category (S/I/R): R
Host strain YMC17/02/B4520
  antibiotic susceptibility S/I/R: R
  susceptibility category (S/I/R): R
Host strain YMC17/02/B4864
  antibiotic susceptibility S/I/R: S
  susceptibility category (S/I/R): S
Host strain YMC17/02/B8414
  antibiotic susceptibility S/I/R: R
  susceptibility category (S/I/R): R
Host strain YMC17/02/P523
  antibiotic susceptibility S/I/R: R
  susceptibility category (S/I/R): R
Host strain YMC17/02/R541
  antibiotic susceptibility S/I/R: R
  susceptibility category (S/I/R): R
Host strain YMC17/02/R2392
  antibiotic susceptibility S/I/R: R
  susceptibility category (S/I/R): R
Host strain YMC17/03/B4730
  antibiotic susceptibility S/I/R: R
  susceptibility category (S/I/R): R
Host strain YMC17/03/B5000
  antibiotic susceptibility S/I/R: R
  susceptibility category (S/I/R): R
Host strain YMC17/03/P971
  antibiotic susceptibility S/I/R: R
  susceptibility category (S/I/R): R
Host strain YMC17/03/R348
  antibiotic susceptibility S/I/R: R
  susceptibility category (S/I/R): R
Host strain YMC17/03/R585
  antibiotic susceptibility S/I/R: R
  susceptibility category (S/I/R): R
Host strain YMC17/03/R1888
  antibiotic susceptibility S/I/R: R
  susceptibility category (S/I/R): R
Host strain YMC17/03/R3279
  antibiotic susceptibility S/I/R: R
  susceptibility category (S/I/R): R
Host strain YMC17/03/R4077
  antibiotic susceptibility S/I/R: R
  susceptibility category (S/I/R): R
Host strain YMC17/03/R4607
  antibiotic susceptibility S/I/R: R
  susceptibility category (S/I/R): R
Host strain YMC17/04/R488
  antibiotic susceptibility S/I/R: R
  susceptibility category (S/I/R): R
Host strain YMC17/04/R640
  antibiotic susceptibility S/I/R: R
  susceptibility category (S/I/R): R
Host strain YMC/17/05/R1095
  antibiotic susceptibility S/I/R: R
  susceptibility category (S/I/R): R
